In US10647719B2, “Bicyclic compounds as dual ATX/CA inhibitors” (Hoffmann-La Roche Inc., priority 2015, dated 2020):

How the values were obtained:
human ATX = human ATX (Homo sapiens (Human), UniProt Q13822); experiment: Human ATX enzyme inhibition assay (fluorescence quenching, MR121 substrate); type: biochemical; conditions: human His-tagged ATX 30 nM, MR121 substrate 1 μM, 30° C.; read-out: ATX IC50
How it was run: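 Human His-tagged ATX (30 nM final) preincubated 15 min at 30 °C with serially diluted compounds in Tris buffer pH 8.0 with Ca2+, Mg2+ and 0.01% Triton X-100. MR121/tryptophan-labelled substrate analogue (1 μM final) then added for 15 min at 30 °C; cleavage read by fluorescence dequenching.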

[1] = target: Human carbonic anhydrase II (hCA-II) (Homo sapiens (Human), UniProt P00918); experiment: Human carbonic anhydrase-II inhibition assay (absorbance, 4-nitrophenyl acetate substrate); type: biochemical; conditions: hCA II 8 nM, 4-NPA 2.5 mM, absorbance 340 nm, room temperature 1 hour; read-out: CA-II IC50

IC50 (human ATX)	IC50 [1]	Structure (SMILES)
3 nM	3.6 nM	CC(C)(C)C(=O)Nc1cc2ccccc2nc1COC(=O)N1CC2=C(C1)CN(C(=O)c1ccc(S(N)(=O)=O)cc1F)C2 [Example 4.01, [3-(2,2-dimethylpropanoylamino)quinolin-2-yl]methyl 2-(2-fluoro-4-sulfamoylbenzoyl)-1,3,4,6-tetrahydropyrrolo[3,4-c]pyrrole-5-carboxylate]
7 nM	17.6 nM	CC(C)(C)C(=O)Nc1cc(C(F)(F)F)cnc1COC(=O)N1CC2=C(C1)CN(S(=O)(=O)c1ccc(S(N)(=O)=O)cc1F)C2 [Example 5.00, [3-(2,2-dimethylpropanoylamino)-5-(trifluoromethyl)pyridin-2-yl]methyl 5-(2-fluoro-4-sulfamoylphenyl)sulfonyl-1,3,4,6-tetrahydropyrrolo[3,4-c]pyrrole-2-carboxylate]
